Patent US6827926B2, “Metallotetrapyrrolic photosensitizing agents for use in photodynamic therapy” (Miravant Pharmaceuticals, Inc., priority 2001, dated 2004)
Where two headings read alike, the source gives them in different places.

Experiments:
[1] = test system: normal uninjured rat carotid arteries (medial and adventitial cell populations); experiment: In vivo rat carotid artery acellularity after PDT; parameters: species or system Sprague Dawley rats; conditions: for Max % rat Artery Accelularity: Table 3, 50 J/cm^2, 3 days post treatment; for Max % Rat Artery Accelularity: Table 4
Procedure: The acute effects of metallated photosensitizers, in response to light activation, to cause depletion of cell populations in the medial and adventitial layers of vessels was measured in normal uninjured rat carotid arteries. […] Shortly before the light treatment, the rats were anaesthetized with 3.5% isoflurane (Abbott Laboratories, IL, USA) and the femoral region of the right leg was shaved and cleaned. […] A direct arteriotomy was performed and a light balloon catheter ([…] Medical Technologies, Inc) was introduced into the vessel and advanced retrogradely into a non-manipulated region of the left common carotid artery via the abdominal aorta. […] After light treatment and removal of the catheter, the right femoral artery was tied off and the skin wound was closed. Rats were sacrificed three days post treatment as this corresponds to the known peak time that vascular cells, e.g., VSMC and myofibroblasts, proliferate and migrate in response to an injury. The area spanning both left and right carotid arteries and surrounding tissue was harvested, fixed, embedded in paraffin and sectioned. The tissues were stained with Hematoxylin and Eosin (Fisher Scientific, PA) and examined by light microscopy to histologically assess the cell population density in the medial and adventitial layers of the PDT-treated vessel wall. […] Metallo azaporphyrins with Ga, Zn, Al, Sn were excited at 575 nm, while Pt azaporphyrins were excited at 532 nm.

[2] = test system: V79 (Chinese Hamster Lung Fibroblasts) cells; experiment: In vitro cytotoxicity assay (light EC50, Alamar blue); format: cell-based
Summary of the method: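 V79 cells in phenol-free 5% FBS/DMEM exposed 24 h to photosensitizer at final 0.01–5.0 μM, six replicates, then washed and light-treated, with a dark plate as control. Survival by Alamar blue after 24 h dark incubation, read at 570/600 nm.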

[3] = test system: normal skin of CD Hairless male rats; format: in vivo, rat
Description: We tested metallo- and metal-free tetrapyrroles systemically (see following section) for normal skin response in relation to the pharmacodynamic distribution of the photosensitizers in CD hairless rats. The skin of CD hairless rats are poorly developed, often referred to as hyperkeratotic, with various sized cystic hair follicles containing concentric lamellar accumulations of keratinaceous material, which are often associated with enlarged sebaceous glands. It quickly became apparent that gallium tetrapyrroles induced a marked clearing of the hyperkeratotic lesions in the treatment areas on the hairless rats. In fact, this clearing could be induced without necrosis of the skin. No other metallotetrapyrrole type produced such effects. This observation led us to assess the metallotetrapyrrolic compounds for skin restructuring effects both topically and systemically and for their ability to reduce hair growth in the following animal models.
Photosensitizer normal skin response as well as skin healing response, was evaluated using CD Hairless male rats. Photosensitizers were administered in an liposomal egg yolk phospholipid formulation at 1, 1.5 and 2 μmol/kg body weight formulation per dose group as a single bolus intravenous injection given through a marginal tail vein using a 27 gauge needle and a 1 cc tuberculin syringe. Normal skin responses were evaluated by irradiating several spots on the skin of the rat with a 532 nm laser (150 mW/cm^2, 150J, 1 cm diameter) at 1, 6, 24, 48, and 96 hrs post injection. Normal skin responses were evaluated and documented. The time at which the last spot is observed at the concentration injected is reported in the far right hand column in Tables 3, 4, 5 and 6. Skin samples were taken for histological evaluation at days 1, 10, 20 and 22 post light treatment. Rats were housed under normal lighting and all study procedures involving the test article were conducted under light filtered through blue and green Roscolox light filters to prevent photoactivation or degradation of the drug.

[4] = Table 3 porphyrins, 24 h drug incubation, 532 nm, 1.25 J/cm^2, read-out: In Vitro EC50 Light
[5] = drug dose 1 μMol, 575 nm (Pt 532 nm)
[6] = Table 4 azaporphyrins, 575 nm (Pt azaporphyrins 532 nm), 1.25 J/cm^2, read-out: In Vitro EC(50)
[7] = Table 3, time of last skin spot observed post injection, 1 μmol, 532 nm laser

Compound	Max % rat Artery Accelularity ([1]; drug dose 1 μMol)	EC50 [2, 4]	Normal skin Response (1 μmol) ([3]; rat, in vivo)	Max % Rat Artery Accelularity [1, 5]	EC50 [2, 6]	Normal skin Response (1 μmol) ([3]; Table 4, time of last skin spot observed post injection, 1 μmol)	Max % Rat Artery Accelularity ([1]; drug dose 0.5 μMol)	Normal skin Response (1 μmol) [3, 7]
CCC1=C(C)C2=[N+]3C1=Cc1c(C)c(CC)c4[n]1[Ga-2]31([Cl])[n]3c(c(C)c(CCC(=O)N(CC)CC)c3=CC3=[N+]1C(=C4)C(C)=C3CCC(=O)N(CC)CC)=C2 [Example 15, Gallium Chloride Mesoporphyrin N,N-diethylamide]	60%	450 nM	96 h	–	–	–	–	–
C=CC1=C(C)c2nc1cc1[n-]c(cc3nc(cc4[n-]c(n2)c(C)c4CCC(=O)OC)C(CCC(=O)OC)=C3C)c(C=C)c1C.[Cl-].[Ga+3] [Example 19, Gallium Chloride 5-azaprotoporphyrin IX Dimethyl Ester]	–	–	–	55%	400 nM	24 h	–	–
CCC1=C(CC)C2=[N+]3C1=Nc1c(CC)c(CC)c4[n]1[Ga-2]31([Cl])[n]3c(c(C)c(CCC(=O)OC)c3=CC3=[N+]1C(=C4)C(C)=C3CCC(=O)OC)=C2 [Example 21, Gallium Chloride 7,8,12,13-tetraethyl-12,17-dimethyl-10-azaporphyrin-2,18-di(propionic acid methyl ester)]	–	–	24 h	60%	400 nM	–	–	–
CCC1=C(CC)C2=[N+]3C1=Nc1c(CC)c(CC)c4[n]1[Ga-2]31([Cl])[n]3c(c(C)c(CCC(=O)NC)c3=CC3=[N+]1C(=C4)C(C)=C3CCC(=O)NC)=C2 [Example 22, Gallium Chloride 7,8,12,13-tetraethyl-12,17-dimethyl-10-azaporphyrin-2,18-di(propionic acid methyl amide)]	–	–	48 h	–	450 nM	–	50%	–
CCOC(=O)CCCCC1=C(C)c2cc3[n-]c(cc4nc(cc5[n-]c(cc1n2)c(CCCCC(=O)OCC)c5C)C(C)=C4CC)c(C)c3CC.[Cl-].[Ga+3] [Example 28, Gallium Chloride 8,13-diethyl-3,7,12,17-tetramethylporphyrin-2,18-di(pentanoic acid ethyl ester)]	80%	400 nM	6 h	–	–	–	–	–
CCC1=C(C)c2cc3[n-]c(cc4nc(cc5[n-]c(cc1n2)c(C)c5CCC(=O)OC)C(CCC(=O)OC)=C4C)c(C)c3CC.[Cl-].[In+3] [Example 31, Indium Chloride Mesoporphyrin Dimethyl Ester]	90%	70 nM	96 h	–	–	–	–	–
CCC1=C(C)c2cc3[n-]c(cc4nc(cc5[n-]c(cc1n2)c(C)c5CCC(=O)OCCF)C(CCC(=O)OCCF)=C4C)c(C)c3CC.[Cl-].[Ga+3] [Example 34, Gallium Chloride Mesoporphyrin di (2-fluoroethylester)]	80%	400 nM	24 h	–	–	–	–	–
CCC1=C(C)c2cc3[n-]c(cc4nc(cc5[n-]c(cc1n2)c(C)c5CC)C(C)=C4CCC(=O)OCCCCl)c(CCC(=O)OCCCCl)c3C.[Cl-].[Ga+3] [Example 35, Gallium Chloride Mesoporphyrin di (3-chloropropylester)]	80%	400 nM	96 h	–	–	–	–	–
CC1=Cc2cc3[n-]c(cc4nc(cc5[n-]c(cc1n2)cc5C)C(C)=C4CCC(=O)OCCCCl)c(CCC(=O)OCCCCl)c3C.[Cl-].[Ga+3] [Example 36, Gallium Chloride Deuteroporphyrin di (3-chloropropylester)]	80%	400 nM	96 h	–	–	–	–	–
CC1=Cc2cc3[n-]c(cc4nc(cc5[n-]c(cc1n2)cc5C)C(C)=C4CCC(=O)OCCF)c(CCC(=O)OCCF)c3C.[Cl-].[Ga+3] [Example 37, Gallium Chloride Deuteroporphyrin di (2-fluoroethylester)]	80%	400 nM	–	–	–	–	–	48 h
CC1=Cc2cc3[n-]c(cc4nc(cc5[n-]c(cc1n2)c(C)c5CCC(=O)OCC(F)(F)F)C(CCC(=O)OCC(F)(F)F)=C4C)cc3C.[Cl-].[Ga+3] [Example 38, Gallium Chloride Deuteroporphyrin di (2,2,2-trifluoroethylester)]	80%	400 nM	24 h	–	–	–	–	–
COC(=O)CCC1=C(C)c2cc3[n-]c(cc4nc(cc5[n-]c(cc1n2)c(CCC(=O)OC)c5C)C(Br)=C4C)c(Br)c3C.[Cl-].[Ga+3] [Example 39, Gallium Chloride 3,8-dibromodeuteroporphyrin dimethyl ester]	75%	400 nM	6 h	–	–	–	–	–
COC(=O)CCC1=C(C)c2cc3[n-]c(cc4nc(cc5[n-]c(cc1n2)c(CCC(=O)OC)c5C)C(CO)=C4C)c(CO)c3C.[Cl-].[Ga+3] [Example 40, Gallium Chloride 3,8-hydroxymethyl deuteroporphyrin dimethyl ester]	5%	600 nM	–	–	–	–	–	6 h
COC(=O)CCC1=C(C)C2=Cc3c(C)c(CN(C)C)c4[n]3[Pt][n]3c(c(C)c(CCC(=O)OC)c3=CC1=N2)=CC1=NC(=C4)C(C)=C1CN(C)C [Example 41, Platinum 3,8-Bis(dimethylaminomethyl) deuteroporphyrin dimethyl ester]	0%	200 nM	48 h	–	–	–	–	–
C=CC1=C(C)c2cc3[n-]c(cc4nc(cc5[n-]c(cc1n2)c(C)c5CCC(=O)OC)C(CCC(=O)OC)=C4C)c(C)c3C=C.[Cl-].[Ga+3] [Example 42, Gallium Chloride Protoporphyrin Dimethyl Ester]	70%	480 nM	–	–	–	–	–	6 h
CCC1=C(C)C2=NC1=Cc1c(C)c(CC)c3[n]1[Sn]([Cl])([Cl])[n]1c(c(C)c(CCCC(=O)OC)c1=CC1=NC(=C3)C(C)=C1CCCC(=O)OC)=C2 [Example 45, Tin(IV) Dichloride 8,13-diethyl-3,7,12,17-tetramethylporphyrin-2,18-di(butanoic acid methyl ester)]	20%	1500 nM	–	–	–	–	–	24 h
CCCOC(=O)CCCC1=C(C)C2=Cc3c(CC)c(C)c4[n]3[Ga]([Cl])[n]3c(c(C)c(CCCC(=O)OCCC)c3=CC1=N2)=CC1=NC(=C4)C(CC)=C1C [Example 50, Gallium 8,13-diethyl-3,7,12,17-tetramethylporphyrin-2,18-di(butanoic acid propyl ester)]	80%	400 nM	–	–	–	–	–	48 h
CCOC(=O)CCCCC1=C(C)C2=Cc3c(CC)c(C)c4[n]3[Sn]([Cl])([Cl])[n]3c(c(C)c(CCCCC(=O)OCC)c3=CC1=N2)=CC1=NC(=C4)C(CC)=C1C [Example 51, Tin(IV)dichloride 8,13-diethyl-3,7,12,17-tetramethylporphyrin-2,18-di(pentanoic acid ethyl ester)]	20%	1700 nM	24 h	–	–	–	–	–
CCOC(=O)CCCCC1=C(C)c2cc3[n-]c(cc4nc(cc5[n-]c(cc1n2)c(CCCCC(=O)OCC)c5C)C(C)=C4CC)c(C)c3CC.[Cl-].[In+3] [Example 52, Indium Chloride 8,13-diethyl-3,7,12,17-tetramethylporphyrin-2,18-di(pentanoic acid ethyl ester)]	75%	50 nM	48 h	–	–	–	–	–
